Measurements reported in a melting point compilation (Tetko et al.; mined from patent text by program, amines drawn as free bases though some values may be those of a salt).

`CCOC(=O)c1cc(-c2ocnc2C)[nH]n1` gave a melting point of 131 to 133 °C. In the case of `Cc1ccc(S(=O)(=O)NC(=O)n2sc(Cl)cc2=O)cc1`, the melting point is reported as 125 to 128 °C. In the case of `O=C1c2ccccc2C(=O)N1CCCSc1nccc(NC(=S)NCC(F)(F)F)n1`, the melting point is reported as 214 to 215 °C. `O=Cc1ccc(-c2ccc3ncnc(Nc4ccc(OCc5cccc(F)c5)c(Cl)c4)c3c2)o1` showed a melting point of 230 to 234 °C. `COCc1cc(O)nc(C)n1` showed a melting point of 168 to 170 °C. Compound `C=CCC1(C(C)(C)C(=O)O)C(=O)NC(=O)NC1=O` has a melting point of 202 to 203 °C. `O=C1CN(Cc2ccc(COc3cccc4c3CN(C3CCC(=O)NC3=O)C4=O)cc2)CCN1` (configuration not stated) showed a melting point of 245 to 247 °C. `C[C@@H]1Cc2cc(N3C[C@H](CN=[N+]=[N-])OC3=O)ccc2N1C(=O)OCc1ccccc1` showed a melting point of 192 to 193 °C. `Fc1ccccc1-c1nnc(-c2ccccc2C(F)(F)F)o1` gave a melting point of 68 to 69 °C. `Cc1cccc2ncc(C(=O)NC3CCCC3)c(=O)n12` gave a melting point of 158 to 160 °C. `O=C(O)CCCCCCCCn1cc(-c2ccccc2)c(-c2ccccc2)nc1=O` showed a melting point of 120 to 123 °C. `CCCC1=C(C(=O)OCC)C(c2ccccc2OC2CCCC2)c2c[nH]nc2N1` (configuration not stated) gave a melting point of 195 °C. `Cc1c(C(=O)c2ccc(Cl)c(S(N)(=O)=O)c2)sc2ccccc12` gave a melting point of 210 °C. Compound `O=S(=O)(Cl)c1ccc2ccc(Br)cc2c1` has a melting point of 100 to 101 °C. With `CCOC(=S)CC/C(C)=C/Cc1c(O)c2c(c(C)c1OC)COC2=O` the melting point was 63 to 67 °C. `CC(O)c1ccc(Oc2ccc(NC(=O)Nc3cc(C(C)(C)C)on3)cc2)cc1` (configuration not stated) gave a melting point of 80 to 85 °C. `Cc1nc2c3c(ccn2c1C)C(=O)[C@@](C)(O)[C@@H](c1ccccc1)N3` showed a melting point of 240 °C. `CN1CCN(C(=O)/C=C/CSc2nc(N)cc(Cl)n2)CC1` gave a melting point of 155 to 156 °C. Compound `COc1ccc(C2(C)C(=O)c3c(N4CCN(C)CC4)cc(Cl)cc3N(Cc3ccccc3)C2=O)cc1` (configuration not stated) has a melting point of 66 to 67 °C. Compound `CCCc1c(C(=O)NCc2ccc(-c3ccc(OCC(=O)O)c(Br)c3)cc2)cnn1-c1ccccc1` has a melting point of 204 to 206 °C. `Cc1nc2n(c1CCN(C)C)CCCC2OCc1ccccc1` (configuration not stated) gave a melting point of 68 to 70 °C. `CCCCC1=NC2(CCCC2)C(=O)N1Cc1ccc(-c2ccccc2S(=O)(=O)Nc2noc(C)c2C)c(CO)c1` showed a melting point of 90 to 98 °C. Compound `CCCCCCCCCCc1cc2c(s1)-n1c(C)nnc1CN=C2c1ccccc1C` has a melting point of 61 to 63 °C. `COc1ccc2cc3c(cc2c1)C(=O)NC3=O` gave a melting point greater than 250 °C. In the case of `FC(F)(F)c1ccc(/C=C/c2nc(COc3cccc(CCCn4ccnn4)c3)co2)cc1`, the melting point is reported as 115 to 116 °C. `COC(=O)CCCC(=O)N(C)CCc1c[nH]c2ccccc12` showed a melting point of 101 to 102 °C. Work on `Nc1nc2c(OCCOc3nccnc3N3CCNCC3)cccc2o1` yielded a melting point of 138 to 140 °C. With `CCN(CCCc1c[nH]c2c(OC)cccc12)C1COc2c(F)ccc(C(N)=O)c2C1` (configuration not stated) the melting point was 148 to 153 °C. For `N#Cc1ccc(-c2ccc(OCCCCCCO)cc2)cc1`, the melting point was 87 to 89 °C. `O=C(N[C@@H](Cc1ccccc1)C(=O)O)OCC1c2ccccc2Oc2ccccc21` showed a melting point of 143 to 145 °C. `Cc1cc(C)cc(C(=O)P2(=O)Oc3ccccc3-c3ccccc32)c1` (configuration not stated) showed a melting point of 120 to 124 °C. With `CCCc1ccc(NC(C)=O)cn1` the melting point was 122 to 124 °C. In the case of `Nc1c(S(=O)(=O)c2ccc(O)cc2)c2nccnc2n2ccnc12`, the melting point is reported as greater than 300 °C. For `Cc1nc2nc(S(=O)(=O)Nc3c(Cl)cccc3Cl)nn2cc1Br`, the melting point was 215 to 216 °C. Work on `O=C(Nc1ccc(-n2nc(C(F)(F)F)cc2C(F)(F)F)cc1)c1ccccc1Cl` yielded a melting point of 155 to 157 °C. Compound `COc1ccc(-c2nn(C3CCC3)c3c(C(F)(F)F)cccc23)c(OC)c1` has a melting point of 109 to 110 °C. `CN1CCN(c2ccc(Nc3ncc4cc5ccccc5n4n3)cc2)CC1` showed a melting point of 217 to 222 °C. Work on `O=Cc1ccc([N+](=O)[O-])cn1` yielded a melting point of 66 to 67 °C. Work on `O=C(NCC1(c2ccccc2)CCCCC1)Nc1cccc(C(F)(F)F)c1` yielded a melting point of 147 to 151 °C. Work on `CC(=O)OC1CCC2(C)C(=CCC3C4CC(OC(C)=O)C(=O)C4(C)CCC32)C1` (configuration not stated) yielded a melting point of 173 to 174 °C. Compound `C=CCOC(=O)c1[nH]c2cc(Cl)cc(Cl)c2c1C=C1NC(=O)N(c2ccccc2)C1=O` has a melting point greater than 250 °C. Work on `CCCCC(=O)Nc1cc(C(=O)N2CCOCC2)ccn1` yielded a melting point of 110 to 112 °C. With `NC(=O)Cn1c(=O)ccc2cc(Br)ccc21` the melting point was 257 to 258 °C. Compound `CC(C)Oc1ccc(C[C@H](NC(=O)[C@@H]2CCCCN2S(=O)(=O)c2cccc(C(F)(F)F)c2)C(=O)NC2CCOCC2)cc1` has a melting point of 78.6 °C. In the case of `CCOc1ccccc1C(=O)CCC(=O)O`, the melting point is reported as 125 to 127 °C. Work on `N[C@@H](CCC(=O)O)C(=O)N[C@@H](Cc1ccccc1)C(=O)OCc1ccccc1` yielded a melting point of 103 to 104 °C. Work on `CCNC(=O)c1c(Cl)cc(Cl)cc1[Si](C)(C)C` yielded a melting point of 101 to 103 °C. With `O=C(Cn1c(-c2ccccc2)ccc(NC(=O)OCc2ccccc2)c1=O)NC(Cc1ccccc1)C(=O)C(F)(F)F` (configuration not stated) the melting point was 178 to 181 °C. With `CCCCC(COc1cccc(COc2cccc3cccnc23)c1)OC(C)=O` (configuration not stated) the melting point was 85 to 86 °C. For `COC(=O)NCCNC(=O)c1cc(C)c(C(c2cc(F)ccc2F)S(=O)(=O)c2ccc(F)cc2)cn1` (configuration not stated), the melting point was 167 to 169 °C. With `CCCCc1[nH]c2ccc(OC)cc2c1C(=O)c1ccc(OC)cc1` the melting point was 170 °C. Compound `CCCCCCCCC(O)C=Cc1cccc(Oc2cccc(C(=O)O)c2)n1` (racemic) has a melting point of 85 to 87 °C. With `CS(=O)(=O)C(=C1CN(C(c2ccccc2)c2ccccc2)C1)c1cccc(Cl)c1` the melting point was 205 °C. For `COc1c(C)cnc(CS(=O)c2nc3ncccc3[nH]2)c1C` (configuration not stated), the melting point was 169 to 170 °C. In the case of `O=C(O)C1=Cc2cc(Cl)c(Oc3cccc(C(=O)O)c3)cc2OC1C(F)(F)F` (configuration not stated), the melting point is reported as 288 to 289 °C. Compound `OC(c1ncc[nH]1)(c1ccc(Cl)cc1Cl)c1ccc(Cl)cc1Cl` has a melting point of 193 °C. With `CC(Cc1ccccc1)CN(C)C1CCC(c2ccc3[nH]c(=O)oc3c2)CC1` (configuration not stated) the melting point was 43 to 48 °C. `COC(=O)C(C)(C)Cc1c(SC(C)(C)C)c2cc(OCc3ccc4ccccc4n3)ccc2n1Cc1ccc(Cl)cc1` showed a melting point of 166 to 167 °C. `Cn1nc(C(F)(F)F)c(C(=O)Nc2ccccc2)c1-c1ccccc1O` showed a melting point of 191 °C. With `CC(=O)Nc1c(C(O)(C(F)(F)F)C(F)(F)F)cc(Cl)c2ccccc12` the melting point was 161 to 162 °C. With `CN1CCN(c2cc3c(Cl)cccc3c(=O)[nH]2)CC1CO` (configuration not stated) the melting point was 212 to 214 °C. With `Cc1ccn(-c2ccc(C(=O)N3Cc4cccnc4N(C)c4ccccc43)c(C(F)(F)F)c2)n1` the melting point was 188 to 190 °C. `CSc1nn2c(O)cc(CN3CCN(C)CC3)nc2c1S(=O)(=O)c1ccccc1` gave a melting point greater than 220 °C. For `CN(C)C=Nc1sc(C=Nc2ccccc2)c(Cl)c1C#N`, the melting point was 174 °C. For `COC1(OC)CC(Nc2ncnc3c2ncn3C2OC(CO)C(O)C2O)NC1=O` (configuration not stated), the melting point was 176 to 178 °C. `CC(CCCCC(=O)O)C1CCC2C3CCC4CC(O)CCC4(C)C3CC(O)C12C` (configuration not stated) showed a melting point of 191 to 193 °C. Compound `COc1ccc(N2CCN(c3c(C)c(C)c4c(c3C)C(c3ccc(Cl)cc3)C(C)(C)O4)CC2)cc1` (configuration not stated) has a melting point of 181 to 183 °C. Compound `CS(=O)(=O)c1ccc(-n2nc(C(F)(F)F)cc2-c2ccc(-c3cscn3)cc2)cc1` has a melting point of 168 to 170 °C. For `CCCCC[C@H]1CC[C@H](c2cnc([C@H]3CC[C@H](C#N)CC3)nc2)CC1`, the melting point was 110 °C. `OCC(O)CNCC(O)C(O)C(O)C(O)CO` (configuration not stated) showed a melting point of 133 to 134 °C. Compound `COC(=O)c1c(SCc2ccc(OC)cc2)nc(C)n1Cc1cc2c(cc1Cl)OCO2` has a melting point of 169 °C. For `C=C(C)c1ccc(C(C)(c2ccc(C(=C)C)cc2)c2ccc(C(=C)C)cc2)cc1`, the melting point was 28 °C. With `CCCCc1nn(-c2cc(NC(=O)CC)ccc2Cl)c(=O)n1Cc1ccc(-c2ccccc2S(=O)(=O)NC(C)(C)C)cc1F` the melting point was 103 to 105 °C. Compound `CCOc1cc(Oc2ccc(S(C)(=O)=O)nc2)cc2cc(C3=NCC(CC(=O)O)S3)[nH]c12` (configuration not stated) has a melting point of 208 to 210 °C. In the case of `O=C(O)CCCCCCCCCCSSCCCCCCCCCCC(=O)O`, the melting point is reported as 94 °C. With `O=C(c1ccccc1Cl)c1cc2c(cc1NC=C[N+](=O)[O-])CCC2` the melting point was 225 to 226 °C. In the case of `Cc1cc(=O)c(O)co1`, the melting point is reported as 152 to 153 °C. `CC(=O)CNC1(c2ccc(OC(C)=O)cc2)Sc2ccccc2N(C)C1=O` (configuration not stated) showed a melting point of 182 to 184 °C. Compound `NC(=O)Cn1c(=O)c2ncn3c2n(c1=O)CC=C3c1cccc(C(F)(F)F)c1` has a melting point of 283 to 285 °C. `CS(=O)(=O)Oc1ccc([C@@H]2CCNC(=O)[C@H]2c2ccccc2)cc1` (relative stereo) showed a melting point of 199 °C. `CC(=O)Nc1c2c(cc3c1CCC3)CCC2` gave a melting point of 257 to 259 °C. With `O=C1c2cccc3c([N+](=O)[O-])ccc(c23)C(=O)N1O` the melting point was 255 to 260 °C. `Cc1nc(NN)nnc1-c1ccccc1` gave a melting point of 136 to 138 °C. Work on `Oc1ccccc1C=NNc1nc(C(Cl)(Cl)Cl)ns1` yielded a melting point of 204 to 205 °C. With `CC(C)(CCCSCCNS(=O)(=O)c1ccc(Cl)cc1)C(=O)O` the melting point was 107 to 109 °C. For `Cc1nc(-c2ccccc2)c(-c2ccccc2)nc1N(C)CCCCOCC(=O)OC(C)(C)C`, the melting point was 48 to 51 °C. In the case of `CC(=O)Nc1ncnc2c1ncn2[C@@H]1C[C@H](OC(C)=O)[C@@H](O)[C@H]1O` (racemic), the melting point is reported as 193 to 195 °C. Compound `CNCC1Cc2cc(-c3ccccc3)cc(-c3ccccc3OC)c2O1` (configuration not stated) has a melting point of 140 to 143 °C. `Oc1ccccc1-c1ccc(Cl)nn1` showed a melting point of 188 °C. In the case of `COc1cccc(CNC(=O)c2nc3cccc(OCCO)c3c(=O)[nH]2)c1`, the melting point is reported as 173 to 174 °C. `CC(=O)SCC(C)C(=O)NC(CCCNC(=N)N)C(=O)O` (configuration not stated) showed a melting point of 133 °C. For `COC(=O)c1cc(N)n(C)n1`, the melting point was 101 to 102 °C. With `c1cc2c(cc1N1CCNCC1)OCCO2` the melting point was 138 °C. With `CNC(=O)C[C@@H]1N=C(c2ccc(Cl)cc2)c2c(sc(C)c2C)-n2c(C)nnc21` the melting point was 143 to 145 °C. Work on `CCCCc1nnc(C(=O)N(C)Cc2ccccc2)n1Cc1ccc(-c2ccccc2-c2nnn[nH]2)cc1` yielded a melting point greater than 95 °C. For `C[C@H](NC(=O)OCc1ccccc1)C(=O)N1CCC[C@H]1C(=O)NC1CCCCCCC1`, the melting point was 94 to 96 °C. For `Nc1nc2ccccc2c2c1ncn2CCOCc1ccccn1`, the melting point was 196 to 198 °C.
